Data published in US9249159B2, “Composition for treating hepatitis C virus, regulating phosphorylation of replicase” (Industry-Academic Cooperation Foundation, Yonsei University, priority 2011, dated 2016).

Assays:
[1] = system: PDK1; experiment: Steady state level of PDK1 in Huh7 cell by immunoblotting; format: cell-based; settings: increasing concentration, 48 hours
Text: (§1) Total cell lysates from cells treated with inhibitors or IFN-α by using antibodies to PDK1, p-PDK1 (S241), PRK2, and p-PRK2 (T816) (products of Cell Signaling Technology, Inc., Beverly, Mass., USA) was used for immunoblotting. In order to detect PKC isoforms α, β, and γ, a polyclonal antibody to a consensus sequence present in three PKC (protein kinase C) isoforms α, β and γ (anti-pan-PKC; Zymed Laboratories, San Francisco, Calif., USA) was used. An anti-α-tubulin antibody (Oncogene Research Products, Cambridge, Mass., USA) was carried out in immunoblotting for checking whether or not the same amount of protein was loaded.
In order to test whether or not PDK1 in Huh7 as an HCC cell line was destabilized by inhibition of Hsp90, 17-DMAG as a second-generation geldanamycin derivative known as being safer than geldanamycin or its derivative 17-AAG and effective for oral delivery was used (FIG. 8A). The Huh7 cell was treated for 48 hours along with an increase in concentration of 17-DMAG, and a steady state level of PDK1 was evaluated by immunoblotting.

[2] = system: PDK1; experiment: PDK1 level and activation in R-1 cell by immunoblotting; format: cell-based; settings: 10 or 50 nM, 72 hours
Text: as §1
Therefore, anti-HCV activity of 17-DMAG in the R-1 cell was tested at a level lower than 50 nM. To do so, the R-1 cell was treated with a vehicle (0.25% DMSO) or 17-DMAG for 72 hours and the cell lysates (50 μg) and antibodies specific to the proteins were immunoblotted to measure levels of the proteins. An anti-α-tubulin antibody (lower end panel) was used as an internal loading control. The levels of the proteins were measured by densitometric analysis of immunoblot, and the phosphorylated amounts and relative intensities calculated with respect to PDK1 and PDK2 were converted with respect to α-tubulin signals and then quantitated. As a result of three independent experiments showing similar results, a representative blot picture was illustrated. […]

[3] = system: HCV IRES; experiment: Dual luciferase reporter assay of translation via HCV IRES in Huh7 cell; format: cell-based, hepatitis C virus; settings: various concentrations, 72 hours
Text: The dual luciferase expression vector allowing cap-dependent translation of a Renilla (RLuc) reporter and HCV internal ribosome entry site (IRES)-mediated luciferase translation of a firefly luciferase (FLuc) reporter was constructed by inserting the HCV IRES and partial core protein-coding region fused to the cDNA for FLuc downstream of the Renilla luciferase reporter gene as described previously. Huh7 cells were transiently transfected with the bicistronic dual luciferase vector using Fugene HD (Roche Applied Science, Indianapolis, Ind., USA). RLuc and FLuc activities in cell lysates were quantified using the Dual-Glo luciferase assay kit (Promega) on the GloMax-Multi detection system (Promega).
Then, in order to observe an effect of 17-DMAG on translation via HCV IRES, a dual reporter assay was carried out. The Huh7 cell was transfected by a dual reporter assay plasmid (FIG. 11B, upper diagram), and treated with 17-DMAG at various concentrations for 72 hours. […] A level of the Firefly luciferase […] and a Renilla luciferase […] was measured by dual luciferase assay and expressed in % with respect to a control treated with DMSO (first bar). […]

[4] = system: Huh7 cells; experiment: Cell cycle analysis of Huh7 cells by flow cytometer; format: cell-based, human; settings: 48 hours, 17-DMAG 500 nM
Experimental: The Huh7 cell treated with 17-DMAG or HA1077 for 48 hours was collected and washed with PBS. The cells were fixed with chilled ethanol for 30 min, treated with RNase A (100 μg/ml) for 5 min at room temperature, stained with 50 μg/mL propidium iodide (PI, Sigma-Aldrich) for 30 min at 37° C., and analyzed using a FACS Calibur flow cytometer (Becton Dickinson, San Jose, Calif., USA).
Then, a cell cycle assay was carried out by using a flow cytometer. Huh7 cells were treated with DMSO (0.25%) or 500 nM of 17-DMAG for 48 hours, and a cell cycle thereof was analyzed by using a flow cytometer to show the percentage of cells in G1, S, and G2/M phases. LY294002 as a PI3K inhibitor was used as a positive control.

CO[C@H]1/C=C\C=C(/C)C(=O)NC2=CC(=O)C(NCCN(C)C)=C(C[C@@H](C)C[C@H](OC)[C@H](O)[C@@H](C)/C=C(\C)[C@@H]1OC(N)=O)C2=O [17-DMAG, 17-(dimethylaminoethylamino)-17-demethoxygeldanamycin]
PDK1 level [1]: gradually and significantly decreased | level of PDK1 [2]: decreased | effect on translation via HCV IRES [3]: did not have an effect | cell cycle (G1, S, G2/M phases) [4]: not significantly changed
